Assay results as given in PubChem BioAssay (NCI).
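Exposure lasted 48 hours, with cells grown in 96-well plates and compounds tested at five concentrations. GI50 is the concentration that inhibits growth by half. TGI: total growth inhibition.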

Columns and labels:
Experiment in all cases: inhibition of tumour cell growth, NCI panel, 48 h
[1] = test system: 786-0 renal
[2] = test system: A498 renal
[3] = test system: A549 NSCLC
[4] = test system: ACHN renal
[5] = test system: BT-549 breast
[6] = test system: CAKI-1 renal
[7] = test system: CCRF-CEM leukemia
[8] = test system: COLO 205 colon
[9] = test system: DU-145 prostate
[10] = test system: EKVX NSCLC
[11] = test system: HCC-2998 colon
[12] = test system: HCT-116 colon
[13] = test system: HCT-15 colon
[14] = test system: HL-60(TB) leukemia
[15] = test system: HOP-62 NSCLC
[16] = test system: HOP-92 NSCLC
[17] = test system: HS 578T breast
[18] = test system: HT29 colon
[19] = test system: IGROV1 ovarian
[20] = test system: K-562 leukemia
[21] = test system: KM12 colon
[22] = test system: LOX IMVI melanoma
[23] = test system: M14 melanoma
[24] = test system: MALME-3M melanoma
[25] = test system: MCF7 breast
[26] = test system: MDA-MB-231 breast
[27] = test system: MDA-MB-435
[28] = test system: MOLT-4 leukemia
[29] = test system: NCI-H226 lung
[30] = test system: NCI-H23 lung
[31] = test system: NCI-H460 lung
[32] = test system: NCI-H522 lung
[33] = test system: NCI/ADR-RES ovarian
[34] = test system: OVCAR-3 ovarian
[35] = test system: OVCAR-4 ovarian
[36] = test system: OVCAR-5 ovarian
[37] = test system: OVCAR-8 ovarian
[38] = test system: PC-3 prostate
[39] = test system: RPMI-8226 leukemia
[40] = test system: RXF 393 renal
[41] = test system: SF-268 CNS
[42] = test system: SF-295 CNS
[43] = test system: SF-539 CNS
[44] = test system: SK-MEL-2 melanoma
[45] = test system: SK-MEL-28 melanoma
[46] = test system: SK-MEL-5 melanoma
[47] = test system: SK-OV-3 ovarian
[48] = test system: SN12C renal
[49] = test system: SNB-19 CNS
[50] = test system: SNB-75 CNS
[51] = test system: SR leukemia
[52] = test system: SW-620 colon
[53] = test system: T-47D breast
[54] = test system: TK-10 renal
[55] = test system: U251 CNS
[56] = test system: UACC-257 melanoma
[57] = test system: UACC-62 melanoma
[58] = test system: UO-31 renal
[59] = test system: MDA-N

## N#CN1CC[C@H](C(=O)Nc2ncc(-c3ccncc3)s2)C1
[1]
  GI50: 0.0415 µM
  TGI: 2.33 µM
[2]
  GI50: 0.121 µM
  TGI: 0.596 µM
[3]
  GI50: 0.262 µM
  TGI: > 100 µM
[4]
  GI50: 0.0348 µM
  TGI: > 100 µM
[5]
  GI50: < 0.0116 µM
  TGI: 0.188 µM
[6]
  GI50: 0.101 µM
  TGI: > 83.2 µM
[7]
  GI50: < 0.0156 µM
  TGI: > 100 µM
[8]
  GI50: < 0.0141 µM
  TGI: 0.045 µM
[9]
  GI50: < 0.0238 µM
  TGI: 39.7 µM
[10]
  GI50: 0.0642 µM
  TGI: 4.4 µM
[11]
  GI50: 0.0844 µM
  TGI: 11 µM
[12]
  GI50: 0.0401 µM
  TGI: 3.2 µM
[13]
  GI50: < 0.021 µM
  TGI: > 100 µM
[14]
  GI50: < 0.0171 µM
  TGI: < 0.028 µM
[15]
  GI50: 0.0689 µM
  TGI: 3.92 µM
[16]
  GI50: 0.0802 µM
  TGI: 0.761 µM
[17]
  GI50: 0.0948 µM
  TGI: 4.66 µM
[18]
  GI50: < 0.0197 µM
  TGI: 1.96 µM
[19]
  GI50: 0.0351 µM
  TGI: 68.4 µM
[20]
  GI50: 0.0471 µM
  TGI: > 100 µM
[21]
  GI50: < 0.0213 µM
  TGI: 3.44 µM
[22]
  GI50: < 0.019 µM
  TGI: > 100 µM
[23]
  GI50: 0.0379 µM
  TGI: 2.1 µM
[24]
  GI50: < 0.0129 µM
  TGI: 0.0694 µM
[25]
  GI50: < 0.0109 µM
  TGI: > 70.2 µM
[26]
  GI50: < 0.0266 µM
  TGI: > 50.2 µM
[27]
  GI50: < 0.0148 µM
  TGI: 5.52 µM
[28]
  GI50: < 0.01 µM
  TGI: 3.8 µM
[29]
  GI50: 0.151 µM
  TGI: 1.5 µM
[30]
  GI50: 0.0269 µM
  TGI: 3.44 µM
[31]
  GI50: < 0.0208 µM
  TGI: 14.3 µM
[32]
  GI50: < 0.0149 µM
  TGI: 0.0499 µM
[33]
  GI50: < 0.0242 µM
  TGI: > 100 µM
[34]
  GI50: < 0.0162 µM
  TGI: 0.989 µM
[35]
  GI50: < 0.027 µM
  TGI: 7.07 µM
[36]
  GI50: 0.0576 µM
  TGI: > 77.3 µM
[37]
  GI50: 0.0596 µM
  TGI: > 100 µM
[38]
  GI50: 0.0582 µM
  TGI: 12.7 µM
[39]
  GI50: < 0.0201 µM
  TGI: 1.27 µM
[40]
  GI50: 0.0238 µM
  TGI: 0.242 µM
[41]
  GI50: 0.127 µM
  TGI: 6.96 µM
[42]
  GI50: 0.226 µM
  TGI: > 38.9 µM
[43]
  GI50: < 0.016 µM
  TGI: 0.164 µM
[44]
  GI50: < 0.01 µM
  TGI: 0.0976 µM
[45]
  GI50: 0.0814 µM
  TGI: 9.19 µM
[46]
  GI50: 0.0925 µM
  TGI: 5.58 µM
[47]
  GI50: 1.15 µM
  TGI: > 30.9 µM
[48]
  GI50: < 0.0277 µM
  TGI: 38.4 µM
[49]
  GI50: 0.415 µM
  TGI: > 69.6 µM
[50]
  GI50: < 0.0148 µM
  TGI: 0.53 µM
[51]
  GI50: < 0.01 µM
  TGI: 4.18 µM
[52]
  GI50: 0.023 µM
  TGI: 19.5 µM
[53]
  GI50: < 0.0177 µM
  TGI: 1.24 µM
[54]
  GI50: 0.109 µM
  TGI: 6.18 µM
[55]
  GI50: 0.0853 µM
  TGI: 53.5 µM
[56]
  GI50: 0.605 µM
  TGI: 6.91 µM
[57]
  GI50: < 0.0172 µM
  TGI: 1.32 µM
[58]
  GI50: < 0.0188 µM
  TGI: 0.758 µM

## Cc1ccc(C2=Nc3ccccc3SC(c3cccc([N+](=O)[O-])c3)C2)cc1 (centres undefined)
[1]
  TGI: 27 µM
[2]
  TGI: > 100 µM
[3]
  TGI: > 100 µM
[4]
  TGI: > 100 µM
[5]
  TGI: 83.6 µM
[6]
  TGI: > 100 µM
[8]
  TGI: > 100 µM
[9]
  TGI: > 100 µM
[10]
  TGI: > 100 µM
[12]
  TGI: 20.8 µM
[13]
  TGI: > 100 µM
[15]
  TGI: > 100 µM
[16]
  TGI: 81.3 µM
[17]
  TGI: 94.7 µM
[18]
  TGI: > 100 µM
[19]
  TGI: > 100 µM
[20]
  TGI: 23.8 µM
[21]
  TGI: 36.8 µM
[23]
  TGI: > 100 µM
[24]
  TGI: > 100 µM
[25]
  TGI: > 100 µM
[26]
  TGI: > 100 µM
[27]
  TGI: 79.2 µM
[59]
  TGI: > 100 µM
[29]
  TGI: > 100 µM
[30]
  TGI: > 100 µM
[31]
  TGI: > 100 µM
[32]
  TGI: 64.6 µM
[33]
  TGI: > 100 µM
[34]
  TGI: 60 µM
[35]
  TGI: > 100 µM
[36]
  TGI: > 100 µM
[37]
  TGI: 71.2 µM
[38]
  TGI: > 100 µM
[39]
  TGI: 5.19 µM
[40]
  TGI: 72.2 µM
[41]
  TGI: > 100 µM
[42]
  TGI: > 100 µM
[43]
  TGI: 19 µM
[44]
  TGI: > 100 µM
[45]
  TGI: > 100 µM
[46]
  TGI: > 100 µM
[47]
  TGI: > 100 µM
[48]
  TGI: > 100 µM
[49]
  TGI: > 100 µM
[50]
  TGI: 38.6 µM
[52]
  TGI: > 100 µM
[53]
  TGI: 72.5 µM
[54]
  TGI: 86.8 µM
[55]
  TGI: 16.9 µM
[56]
  TGI: > 100 µM
[57]
  TGI: > 100 µM
[58]
  TGI: 23 µM

## O=[As](O)(O)c1ccc(N=Nc2ccc(O)cc2)cc1
[1]
  TGI: > 100 µM
[2]
  TGI: > 100 µM
[3]
  TGI: > 100 µM
[4]
  TGI: > 100 µM
[5]
  TGI: > 100 µM
[6]
  TGI: > 100 µM
[7]
  TGI: > 100 µM
[8]
  TGI: > 100 µM
[9]
  TGI: > 100 µM
[10]
  TGI: > 100 µM
[12]
  TGI: > 100 µM
[13]
  TGI: > 100 µM
[14]
  TGI: > 100 µM
[15]
  TGI: > 100 µM
[16]
  TGI: > 100 µM
[17]
  TGI: > 100 µM
[18]
  TGI: > 100 µM
[19]
  TGI: > 100 µM
[20]
  TGI: > 100 µM
[21]
  TGI: > 100 µM
[22]
  TGI: > 100 µM
[23]
  TGI: > 100 µM
[24]
  TGI: > 100 µM
[25]
  TGI: > 100 µM
[26]
  TGI: > 100 µM
[27]
  TGI: > 100 µM
[59]
  TGI: > 100 µM
[28]
  TGI: 17.1 µM
[29]
  TGI: > 100 µM
[30]
  TGI: > 100 µM
[31]
  TGI: > 100 µM
[32]
  TGI: > 100 µM
[33]
  TGI: > 100 µM
[34]
  TGI: > 100 µM
[35]
  TGI: > 100 µM
[36]
  TGI: > 100 µM
[37]
  TGI: > 100 µM
[38]
  TGI: > 100 µM
[39]
  TGI: > 100 µM
[40]
  TGI: > 100 µM
[41]
  TGI: > 100 µM
[42]
  TGI: > 100 µM
[44]
  TGI: > 100 µM
[45]
  TGI: > 100 µM
[46]
  TGI: > 100 µM
[47]
  TGI: > 100 µM
[48]
  TGI: > 100 µM
[49]
  TGI: > 100 µM
[50]
  TGI: > 100 µM
[52]
  TGI: > 100 µM
[53]
  TGI: > 100 µM
[54]
  TGI: > 100 µM
[55]
  TGI: > 100 µM
[57]
  TGI: > 100 µM
[58]
  TGI: > 100 µM
